Biological target: T1, human MCH receptor 1 (MCHR1) (Homo sapiens, UniProt Q99705)
T1 construct: expressed in transfected cells; host or cells: CHO cell clone 57 (membrane fraction)
Test: human MCH receptor 1 (MCHR1) competitive binding assay with [125I]-MCH(4-19)
Conditions: test compound 0.1 μM, human MCHR1-expressing CHO cell membrane fraction, 0.1 µM
Procedure: Determination of human MCH receptor 1 (MCHR1) competitive inhibitory activity of test compound using binding assay
1. Preparation of Membrane Fraction
Using human MCHR1 (=SLC-1 receptor)-expressing CHO cell clone 57 described in WO01/82925, MCHR1-expressing CHO cell membrane fractions were prepared by the following method.
In phosphate buffered saline (pH 7.4) supplemented with 5 mM EDTA (ethylenediaminetetraacetic acid) were respectively suspended human MCHR1-expressing CHO cells (1×10^8 cells) and centrifuged. Homogenate buffer (10 mL, 10 mM NaHCO3, 5 mM EDTA, pH 7.5, 0.5 mM PMSF (phenylmethylsulfonyl fluoride), 20 mg/L leupeptin, 4 mg/L E-64, 1 mg/L pepstatin A) was added to the pellets of the cells and, using Polytron Homogenizer, the mixture was homogenated. The supernatant obtained after centrifugation at 400×g for 10 min was further centrifuged at 100,000×g for 1 hr to give precipitate of the membrane fraction. The precipitate were suspended in 2 mL of assay buffer [20 mM Tris-HCl (pH 7.5), 5 mM EDTA, 0.5 mM PMSF, 20 mg/L leupeptin, 4 mg/L E-64, 1 mg/L pepstatin A]. The membrane fractions were suspended in assay buffer to a protein concentration of 2 mg/mL, and after dispensing, preserved at −80° C. and used upon thawing each time when in use.
The MCHR1 ligand binding inhibitory activity of the test compound was determined as follows.
An MCHR1-expressing CHO cell membrane fraction (173 μL) diluted with an assay buffer was dispensed to a 96 well polypropylene plate (3363, Corning). DMSO solution (2 μL), 33 μM cold MCH(1-19) diluted with DMSO solution (2 μL), or a test compound solution diluted with DMSO solution to various concentrations (2 μL) was added, and lastly, [^125I]-MCH (4-19) diluted with assay buffer (hereinafter, sometimes to be referred to as “hot MCH”, 25 μL) was added to each well. The mixture was reacted with stirring at room temperature for 1 hr, and the plate was set on FilterMate Harvester (PerkinElmer). Using a treating glass filter plate (GF/C, PerkinElmer) with polyethyleneimine, which had been previously set, the plate was suction-filtered and washed three times with washing buffer (50 mM Tris-HCl buffer pH 7.5). The glass filter plate was dried, MicroScinti0 (PerkinElmer) was added at 25 μL/well, and the resulting radioactivity was measured by TopCount liquid scintillation counter (PerkinElmer). The binding inhibition rate of the test compound was calculated by the following formula. Binding inhibition (%)=100−(radioactivity upon addition of test compound and hot MCH−radioactivity upon addition of cold MCH and hot MCH solution)/(radioactivity upon addition of DMSO solution and hot MCH−radioactivity upon addition of cold MCH and hot MCH solution)×100
The binding inhibition rates (%) of test compounds (0.1 μM) as measured using human MCHR1-expressing CHO cell are shown in Table 2.

T1 sequence (Q99705 whole entry): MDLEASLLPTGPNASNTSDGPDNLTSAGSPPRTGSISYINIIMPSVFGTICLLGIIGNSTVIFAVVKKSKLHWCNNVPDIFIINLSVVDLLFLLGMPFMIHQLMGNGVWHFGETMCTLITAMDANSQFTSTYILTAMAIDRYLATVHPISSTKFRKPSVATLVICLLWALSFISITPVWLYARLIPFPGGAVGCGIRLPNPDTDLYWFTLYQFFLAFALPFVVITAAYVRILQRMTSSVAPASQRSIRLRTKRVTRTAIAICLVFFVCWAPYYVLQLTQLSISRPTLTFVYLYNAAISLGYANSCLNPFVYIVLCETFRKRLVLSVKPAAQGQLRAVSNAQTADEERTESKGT

| Structure (SMILES) | Binding inhibition rate % (0.1 μM) |
| --- | --- |
| Cn1c(C2CC2C(C)(C)O)nc2ccc(-n3ccc(OCc4ccc(Cl)cc4)cc3=O)cc21 (stereo not drawn) [Example 154, 4-((4-Chlorobenzyl)oxy)-1-(2-((1R*,2S*)-2-(2-hydroxypropan-2-yl)cyclopropyl)-1-methyl-1H-benzimidazol-6-yl)pyridin-2(1H)-one] | 91% |
| Cn1c(C2CC2C(C)(C)F)nc2ccc(-n3ccc(OCc4ccc(Cl)cc4)cc3=O)cc21 (stereo not drawn) [Example 209, 4-((4-Chlorobenzyl)oxy)-1-(2-((1R*,2S*)-2-(2-fluoropropan-2-yl)cyclopropyl)-1-methyl-1H-benzimidazol-6-yl)pyridin-2(1H)-one] | 89% |

Same assay, conditions: test compound 0.1 μM, human MCHR1-expressing CHO cell membrane fraction, read-out: Binding inhibition rate % (0.1 μM)

| Structure (SMILES) | inhibition at 0.1 µM |
| --- | --- |
| Cn1c(C2CC2)nc2ccc(-n3ccc(OCc4cc(F)cc(F)c4)cc3=O)cc21 [Example 119, 1-(2-Cyclopropyl-1-methyl-1H-benzimidazol-6-yl)-4-((3,5-difluorobenzyl)oxy)pyridin-2(1H)-one] | 56% |
| CCCc1nc2ccc(-n3ccc(OCc4ccccc4)cc3=O)cc2n1C [Example 126, 4-(Benzyloxy)-1-(1-methyl-2-propyl-1H-benzimidazol-6-yl)pyridin-2(1H)-one] | 65% |
| Cc1c(C2CC2)nc2ccc(-n3ccc(OCc4ccc(Cl)s4)cc3=O)cn12 [Example 139, 4-((5-Chloro-2-thienyl)methoxy)-1-(2-cyclopropyl-3-methylimidazo[1,2-a]pyridin-6-yl)pyridin-2(1H)-one] | 88% |
| Cc1ccc(COc2ccn(-c3ccc4nc(C5CC5)n(C)c4c3)c(=O)c2)cc1 [Example 142, 1-(2-Cyclopropyl-1-methyl-1H-benzimidazol-6-yl)-4-((4-methylbenzyl)oxy)pyridin-2(1H)-one] | 69% |
| Cc1ocnc1-c1nc2ccc(-n3ccc(OCc4ccc(F)cc4)cc3=O)cc2n1C [Example 145, 4-((4-Fluorobenzyl)oxy)-1-(1-methyl-2-(5-methyl-1,3-oxazol-4-yl)-1H-benzimidazol-6-yl)pyridin-2(1H)-one] | 52% |
| Cc1c(C2CC2)nc2ccc(-n3ccc(OCc4ccc(F)c(F)c4)cc3=O)cn12 [Example 146, 1-(2-Cyclopropyl-3-methylimidazo[1,2-a]pyridin-6-yl)-4-((3,4-difluorobenzyl)oxy)pyridin-2(1H)-one] | 77% |
| Cc1c(C2CC2)nc2ccc(-n3ccc(OCc4ccc(Cl)c(F)c4)cc3=O)cn12 [Example 151, 4-((4-Chloro-3-fluorobenzyl)oxy)-1-(2-cyclopropyl-3-methylimidazo[1,2-a]pyridin-6-yl)pyridin-2(1H)-one] | 73% |
| Cn1c(C2CC2C(C)(C)O)nc2ccc(-n3ccc(OCc4ccc(Cl)cc4)cc3=O)cc21 (stereo not drawn) [Example 153, 4-((4-Chlorobenzyl)oxy)-1-(2-((1R*,2S*)-2-(2-hydroxypropan-2-yl)cyclopropyl)-1-methyl-1H-benzimidazol-6-yl)pyridin-2(1H)-one] | 94% |
| Cc1nc2ccc(-n3ccc(OCc4ccc(F)cc4)cc3=O)cn2c1C [Example 162, 1-(2,3-Dimethylimidazo[1,2-a]pyridin-6-yl)-4-((4-fluorobenzyl)oxy)pyridin-2(1H)-one] | 57% |
| Cc1nc2ccc(-n3ccc(OCc4ccccc4)cc3=O)cn2c1C [Example 163, 4-(Benzyloxy)-1-(2,3-dimethylimidazo[1,2-a]pyridin-6-yl)pyridin-2(1H)-one] | 49% |
| Cc1nc2ccc(-n3ccc(OCc4csc(Cl)c4)cc3=O)cn2c1C [Example 165, 4-((5-Chlorothiophen-3-yl)methoxy)-1-(2,3-dimethylimidazo[1,2-a]pyridin-6-yl)pyridin-2(1H)-one] | 81% |
| Cc1nc2ccc(-n3ccc(OCc4ccc(Cl)s4)cc3=O)cn2c1C [Example 166, 4-((5-Chlorothiophen-2-yl)methoxy)-1-(2,3-dimethylimidazo[1,2-a]pyridin-6-yl)pyridin-2(1H)-one] | 64% |
| CCc1nc2ccc(-n3ccc(OCc4csc(Cl)c4)cc3=O)cn2c1C [Example 172, 4-((5-Chlorothiophen-3-yl)methoxy)-1-(2-ethyl-3-methylimidazo[1,2-a]pyridin-6-yl)pyridin-2(1H)-one] | 72% |
| Cc1c(C2CC2C#N)nc2ccc(-n3ccc(OCc4ccc(Cl)cc4)cc3=O)cn12 (centres unmarked) [Example 174, 2-(6-(4-((4-Chlorobenzyl)oxy)-2-oxopyridin-1(2H)-yl)-3-methylimidazo[1,2-a]pyridin-2-yl)cyclopropanecarbonitrile] | 45% |
| Cc1c(C2CC2)nc2ccc(-n3ccc(OCc4csc(C(F)F)c4)cc3=O)cn12 [Example 184, 1-(2-Cyclopropyl-3-methylimidazo[1,2-a]pyridin-6-yl)-4-((5-(difluoromethyl)-3-thienyl)methoxy)pyridin-2 (1H)-one] | 82% |
| CCc1ncoc1-c1nc2ccc(-n3ccc(OCc4ccc(F)cc4)cc3=O)cc2n1C [Example 201, 1-(2-(4-Ethyl-1,3-oxazol-5-yl)-1-methyl-1H-benzimidazol-6-yl)-4-((4-fluorobenzyl)oxy)pyridin-2(1H)-one] | 84% |
| Cn1c(C2CC2C(C)(C)F)nc2ccc(-n3ccc(OCc4ccc(Cl)cc4)cc3=O)cc21 (stereo not drawn) [Example 207, 4-((4-Chlorobenzyl)oxy)-1-(2-((1R*,2S*)-2-(2-fluoropropan-2-yl)cyclopropyl)-1-methyl-1H-benzimidazol-6-yl)pyridin-2(1H)-one] | 85% |
| CCC(=O)c1nc2ccc(-n3ccc(OCc4ccc(Cl)cc4)cc3=O)cc2n1C [Example 208, 4-((4-Chlorobenzyl)oxy)-1-(1-methyl-2-propanoyl-1H-benzimidazol-6-yl)pyridin-2(1H)-one] | 39% |
| CCc1nc2ccc(-n3ccc(OCc4ccccc4)cc3=O)cc2n1C [Example 210, 4-(Benzyloxy)-1-(2-ethyl-1-methyl-1H-benzimidazol-6-yl)pyridin-2(1H)-one] | 51% |
| CCc1nc2ccc(-n3ccc(OCc4ccc(Cl)s4)cc3=O)cc2n1C [Example 211, 4-((5-Chlorothiophen-2-yl)methoxy)-1-(2-ethyl-1-methyl-1H-benzimidazol-6-yl)pyridin-2(1H)-one] | 76% |
| Cc1cc(COc2ccn(-c3ccc4nc(C5CC5)n(C)c4c3)c(=O)c2)cs1 [Example 213, 1-(2-Cyclopropyl-1-methyl-1H-benzimidazol-6-yl)-4-((5-methyl-3-thienyl)methoxy)pyridin-2(1H)-one] | 79% |
| Cn1c(C2CC2)nc2ccc(-n3ccc(OCc4csc(F)c4)cc3=O)cc21 [Example 216, 1-(2-Cyclopropyl-1-methyl-1H-benzimidazol-6-yl)-4-((5-fluoro-3-thienyl)methoxy)pyridin-2(1H)-one] | 88% |
| Cn1c(C2CC2)nc2ccc(-n3ccc(OCc4ccsc4F)cc3=O)cc21 [Example 217, 1-(2-Cyclopropyl-1-methyl-1H-benzimidazol-6-yl)-4-((2-fluoro-3-thienyl)methoxy)pyridin-2(1H)-one] | 73% |
| Cn1c(C2CC2)nc2ccc(-n3ccc(OCc4ccsc4Cl)cc3=O)cc21 [Example 221, 4-((2-Chloro-3-thienyl)methoxy)-1-(2-cyclopropyl-1-methyl-1H-benzimidazol-6-yl)pyridin-2(1H)-one] | 58% |
| CCc1nc2ccc(-n3ccc(OCc4ccc(Cl)c(F)c4)cc3=O)cc2n1C [Example 229, 4-((4-Chloro-3-fluorobenzyl)oxy)-1-(2-ethyl-1-methyl-1H-benzimidazol-6-yl)pyridin-2(1H)-one] | 45% |
| Cn1c(C2CC2)nc2ccc(-n3ccc(OCc4cc(Br)c(Cl)s4)cc3=O)cc21 [Example 232, 4-((4-Bromo-5-chloro-2-thienyl)methoxy)-1-(2-cyclopropyl-1-methyl-1H-benzimidazol-6-yl)pyridin-2(1H)-one] | 73% |
| CCc1nc2ccc(-n3ccc(OCc4ccc(C(F)(F)F)s4)cc3=O)cc2n1C [Example 233, 1-(2-Ethyl-1-methyl-1H-benzimidazol-6-yl)-4-((5-(trifluoromethyl)-2-thienyl)methoxy)pyridin-2(1H)-one] | 67% |

Source: patent US9365540B2, “Benzimidazole derivatives as MCH receptor antagonists” (Takeda Pharmaceutical Company Limited, priority 2012, dated 2016)
